From paper PMC6015499 (Journal of medicinal chemistry, 2017)

Assay: PAMPA permeability
Assay type: in vitro ADME

Row | Structure (SMILES) | PAMPA permeability
1 | Cc1ccccc1-c1nc(CN2CCC(C(=O)NCCCN3C[C@H](C)C[C@@H](C)C3)CC2)c(C)o1 (racemic) [7b, (±)-N-(3-(trans-3,5-Dimethylpiperidin-1-yl)propyl)-1-((5-methyl-2-(o-tolyl)oxazol-4-yl)methyl)piperidine-4-carboxamide] | 553.7 1×10^−6 cm/s
2 | Cc1ccccc1-c1nc(CN2CCC(C(=O)NCCCN3CCCC(CC(C)C)C3)CC2)c(C)o1 (racemic) [7l, (±)-N-(3-(3-Isobutylpiperidin-1-yl)propyl)-1-((5-methyl-2-(otolyl)oxazol-4-yl)methyl)piperidine-4-carboxamide] | 3 1×10^−6 cm/s
3 | Cc1cccc(Cl)c1-c1nc(CN2CCC(C(=O)NCCCN3CCCC(C)C3)CC2)c(C)o1 (racemic) [7oo, (±)-1-((2-(2-Chloro-6-methylphenyl)-5-methyloxazol-4-yl)-methyl)-N-(3-(3-methylpiperidin-1-yl)propyl)piperidine-4-carboxamide] | 650.6 1×10^−6 cm/s
4 | Cc1ccccc1-c1nc(CN2CCC(C(=O)NCCCN3C[C@H](C)C[C@H](C)C3)CC2)c(C)o1 [7a, N-(3-(cis-3,5-Dimethylpiperidin-1-yl)propyl)-1-((5-methyl-2-(o-tolyl)oxazol-4-yl)-methyl)piperidine-4-carboxamide] | 489.1 1×10^−6 cm/s
5 | Cc1ccc2ccccc2c1-c1nc(CN2CCC(C(=O)NCCCN3C[C@H](C)C[C@H](C)C3)CC2)c(C)o1 [7bbb, N-(3-(cis-3,5-Dimethylpiperidin-1-yl)propyl)-1-((5-methyl-2-(2-methylnaphthalen-1-yl)oxazol-4-yl)methyl)piperidine-4-carboxamide] | 547.1 1×10^−6 cm/s
6 | CC[C@@H]1C[C@H](CC)CN(CCCNC(=O)C2CCN(Cc3nc(-c4ccccc4C)oc3C)CC2)C1 [7c, N-(3-(cis-3,5-Diethylpiperidin-1-yl)propyl)-1-((5-methyl-2-(otolyl)oxazol-4-yl)methyl)piperidine-4-carboxamide] | 1267 1×10^−6 cm/s
7 | Cc1oc(-c2c(C)c(C)c(C)c(C)c2C)nc1CN1CCC(C(=O)NCCCN2C[C@H](C)C[C@H](C)C2)CC1 [7cc, N-(3-(cis-3,5-Dimethylpiperidin-1-yl)propyl)-1-((2-(2,3,4,5,6-pentamethylphenyl)-5-methyloxazol-4-yl)methyl)piperidine-4-carboxamide] | 455.2 1×10^−6 cm/s
8 | Cc1ccccc1-c1nc(CN2CCC(C(=O)NCCCN3CC(C)(C)CC(C)(C)C3)CC2)c(C)o1 [7d, 1-((5-Methyl-2-(o-tolyl)oxazol-4-yl)methyl)-N-(3-(cis-3,3,5,5-tetramethylpiperidin-1-yl)propyl)piperidine-4-carboxamide] | >1397 1×10^−6 cm/s
9 | Cc1oc(-c2ccccc2Cl)nc1CN1CCC(C(=O)NCCCN2C[C@H](C)C[C@H](C)C2)CC1 [7dd, N-(3-(cis-3,5-Dimethylpiperidin-1-yl)propyl)-1-((2-(2-chlorophenyl)-5-methyloxazol-4-yl)methyl)piperidine-4-carboxamide] | 352.4 1×10^−6 cm/s
10 | Cc1ccccc1-c1nc(CN2CCC(C(=O)NCCCN3CCC(C(C)C)CC3)CC2)c(C)o1 [7e, N-(3-(4-Isopropylpiperidin-1-yl)propyl)-1-((5-methyl-2-(o-tolyl)-oxazol-4-yl)methyl)piperidine-4-carboxamide] | 395.6 1×10^−6 cm/s
11 | Cc1oc(-c2cccc(Cl)c2)nc1CN1CCC(C(=O)NCCCN2C[C@H](C)C[C@H](C)C2)CC1 [7ee, N-(3-(cis-3,5-Dimethylpiperidin-1-yl)propyl)-1-((2-(3-chlorophenyl)-5-methyloxazol-4-yl)methyl)piperidine-4-carboxamide] | 615.1 1×10^−6 cm/s
12 | Cc1ccccc1-c1nc(CN2CCC(C(=O)NCCCN3CCC(C)(C)CC3)CC2)c(C)o1 [7f, N-(3-(4,4-Dimethylpiperidin-1-yl)propyl)-1-((5-methyl-2-(o-tolyl)-oxazol-4-yl)methyl)piperidine-4-carboxamide] | 241.4 1×10^−6 cm/s
13 | Cc1oc(-c2ccc(Cl)cc2)nc1CN1CCC(C(=O)NCCCN2C[C@H](C)C[C@H](C)C2)CC1 [7ff, N-(3-(cis-3,5-Dimethylpiperidin-1-yl)propyl)-1-((2-(4-chlorophenyl)-5-methyloxazol-4-yl)methyl)piperidine-4-carboxamide] | >635.0 1×10^−6 cm/s
14 | Cc1ccccc1-c1nc(CN2CCC(C(=O)NCCCN3CCC(C)CC3)CC2)c(C)o1 [7g, N-(3-(4-Methylpiperidin-1-yl)propyl)-1-((5-methyl-2-(o-tolyl)-oxazol-4-yl)methyl)piperidine-4-carboxamide] | 424.7 1×10^−6 cm/s
15 | Cc1ccccc1-c1nc(CN2CCC(C(=O)NCCCN3CCCCC3)CC2)c(C)o1 [7h, N-(3-(Piperidin-1-yl)propyl)-1-((5-methyl-2-(o-tolyl)oxazol-4-yl)-methyl)piperidine-4-carboxamide] | 34.5 1×10^−6 cm/s
16 | Cc1ccccc1-c1nc(CN2CCC(C(=O)NCCCN3[C@H](C)CCC[C@@H]3C)CC2)c(C)o1 [7i, N-(3-(cis-2,6-Dimethylpiperidin-1-yl)propyl)-1-((5-methyl-2-(otolyl)oxazol-4-yl)methyl)piperidine-4-carboxamide] | 55.4 1×10^−6 cm/s

Row | Structure (SMILES) | PAMPA permeability
17 | Cc1oc(-c2c(F)cccc2F)nc1CN1CCC(C(=O)NCCCN2C[C@H](C)C[C@H](C)C2)CC1 [7jj, N-(3-(cis-3,5-Dimethylpiperidin-1-yl)propyl)-1-((2-(2,6-difluorophenyl)-5-methyloxazol-4-yl)methyl)piperidine-4-carboxamide] | 82.4 1×10^−6 cm/s
18 | CC[C@@H]1C[C@H](CC)CN(CCCNC(=O)C2CCN(Cc3nc(-c4c(F)cccc4F)oc3C)CC2)C1 [7kk, N-(3-(cis-3,5-Diethylpiperidin-1-yl)propyl)-1-((2-(2,6-difluorophenyl)-5-methyloxazol-4-yl)methyl)piperidine-4-carboxamide] | 129.9 1×10^−6 cm/s
19 | Cc1oc(-c2c(Br)cccc2Br)nc1CN1CCC(C(=O)NCCCN2C[C@H](C)C[C@H](C)C2)CC1 [7ll, N-(3-(cis-3,5-Dimethylpiperidin-1-yl)propyl)-1-((2-(2,6-dibromophenyl)-5-methyloxazol-4-yl)methyl)piperidine-4-carboxamide] | <1.0 1×10^−6 cm/s
20 | Cc1ccccc1-c1nc(CN2CCC(C(=O)NCCCN3CC4CCCC(C4)C3)CC2)c(C)o1 [7m, N-(3-(3-Azabicyclo[3.3.1]nonan-3-yl)propyl)-1-((5-methyl-2-(otolyl)oxazol-4-yl)methyl)piperidine-4-carboxamide] | 330.9 1×10^−6 cm/s
21 | Cc1ccccc1-c1nc(CN2CCC(C(=O)NCCN3C[C@H](C)C[C@H](C)C3)CC2)c(C)o1 [7n, N-(3-(cis-3,5-Dimethylpiperidin-1-yl)ethyl)-1-((5-methyl-2-(otolyl)oxazol-4-yl)methyl)piperidine-4-carboxamide] | 712.4 1×10^−6 cm/s
22 | Cc1cccc(Cl)c1-c1nc(CN2CCC(C(=O)NCCCN3C[C@H](C)C[C@H](C)C3)CC2)c(C)o1 [7nn, N-(3-(cis-3,5-Dimethylpiperidin-1-yl)propyl)-1-((2-(2-chloro-6-methylphenyl)-5-methyloxazol-4-yl)methyl)piperidine-4-carboxamide] | 196.3 1×10^−6 cm/s
23 | CCCN(CCC)CCNC(=O)C1CCN(Cc2nc(-c3ccccc3C)oc2C)CC1 [7p, N-(2-(Dipropylamino)ethyl)-1-((5-methyl-2-(o-tolyl)oxazol-4-yl)-methyl)piperidine-4-carboxamide] | 913.1 1×10^−6 cm/s
24 | Cc1ccccc1-c1nc(CN2CCC(C(=O)NCCCN3CCOCC3)CC2)c(C)o1 [7q] | 432.4 1×10^−6 cm/s
25 | Cc1ccccc1-c1nc(CN2CCC(C(=O)N3CCN(C4CCN(C)CC4)CC3)CC2)c(C)o1 [7r, (1-((5-Methyl-2-(o-tolyl)oxazol-4-yl)methyl)piperidin-4-yl)(4-(1-methylpiperidin-4-yl)piperazin-1-yl)methanone] | <3.2 1×10^−6 cm/s
26 | Cc1ccccc1-c1nc(CN2CCC(C(=O)N3CCN(CCN(C)C)CC3)CC2)c(C)o1 [7s, (4-(2-(Dimethylamino)ethyl)piperazin-1-yl)(1-((5-methyl-2-(otolyl)oxazol-4-yl)methyl)piperidin-4-yl)methanone] | 14 1×10^−6 cm/s
27 | Cc1cccc(F)c1-c1nc(CN2CCC(C(=O)NCCCN3C[C@H](C)C[C@H](C)C3)CC2)c(C)o1 [7ss, N-(3-(cis-3,5-Dimethylpiperidin-1-yl)propyl)-1-((2-(2-fluoro-6-methylphenyl)-5-methyloxazol-4-yl)methyl)piperidine-4-carboxamide] | 233.8 1×10^−6 cm/s
28 | Cc1cccc(-c2nc(CN3CCC(C(=O)NCCCN4C[C@H](C)C[C@H](C)C4)CC3)c(C)o2)c1 [7t, N-(3-(cis-3,5-Dimethylpiperidin-1-yl)propyl)-1-((5-methyl-2-(mtolyl)oxazol-4-yl)methyl)piperidine-4-carboxamide] | 279.1 1×10^−6 cm/s
29 | COc1cccc(Br)c1-c1nc(CN2CCC(C(=O)NCCCN3C[C@H](C)C[C@H](C)C3)CC2)c(C)o1 [7tt, N-(3-(cis-3,5-Dimethylpiperidin-1-yl)propyl)-1-((2-(2-bromo-6-methoxyphenyl)-5-methyloxazol-4-yl)methyl)piperidine-4-carboxamide] | 245.3 1×10^−6 cm/s
30 | Cc1ccc(-c2nc(CN3CCC(C(=O)NCCCN4C[C@H](C)C[C@H](C)C4)CC3)c(C)o2)cc1 [7u, N-(3-(cis-3,5-Dimethylpiperidin-1-yl)propyl)-1-((5-methyl-2-(ptolyl)oxazol-4-yl)methyl)piperidine-4-carboxamide] | 274.3 1×10^−6 cm/s
31 | COc1cccc(Cl)c1-c1nc(CN2CCC(C(=O)NCCCN3C[C@H](C)C[C@H](C)C3)CC2)c(C)o1 [7uu, N-(3-(cis-3,5-Dimethylpiperidin-1-yl)propyl)-1-((2-(2-chloro-6-methoxyphenyl)-5-methyloxazol-4-yl)methyl)piperidine-4-carboxamide] | 51.0 1×10^−6 cm/s
32 | CCc1ccccc1-c1nc(CN2CCC(C(=O)NCCCN3C[C@H](C)C[C@H](C)C3)CC2)c(C)o1 [7v, N-(3-(cis-3,5-Dimethylpiperidin-1-yl)propyl)-1-((2-(2-ethylphenyl)-5-methyloxazol-4-yl)methyl)piperidine-4-carboxamide] | 106.1 1×10^−6 cm/s
